Format in all cases: in vivo
Assay [1] relates to Echinochloa crus-galli (ECHCG). Kind of assay: Post-emergence herbicidal glasshouse test, Echinochloa crus-galli. As to conditions: Echinochloa crus-galli, 312 h, rate 250 g/ha, evaluated after 13 days, scale 100 = total damage to plant, 0 = no damage. Summed up: (§1)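 Pots, standard soil; spray at day 1 (pre-em) or day 8 (post-em). Formulation: acetone/water 50:50 + 0.5% Tween 20, diluted into aqueous spray. Glasshouse 24/16° C., 14 h light, 65% RH, watering twice daily. Scored at 13 days: 0 = no damage up to total plant damage.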

In assay [2] the test system is Lolium perenne (LOLPE). The assay can be described thus: Post-emergence herbicidal glasshouse test, Lolium perenne. The note with it: 312 h, rate 250 g/ha, evaluated after 13 days, scale 100 = total damage to plant, 0 = no damage. Summed up: as §1
Assay [3] relates to Alopecurus myosuroides (ALOMY). The assay can be described thus: Pre-emergence herbicidal glasshouse test, Alopecurus myosuroides. The note with it: Alopecurus myosuroides, 312 h, rate 250 g/ha, evaluated after 13 days, scale 100 = total damage to plant, 0 = no damage. The method in brief: as §1
Assay [4] deals with Alopecurus myosuroides (ALOMY). The assay can be described thus: Post-emergence herbicidal glasshouse test, Alopecurus myosuroides. The note with it: Alopecurus myosuroides, 312 h, rate 250 g/ha, evaluated after 13 days, scale 100 = total damage to plant, 0 = no damage. The method in brief: as §1
Assay [5] relates to Avena fatua (AVEFA). Kind of assay: Pre-emergence herbicidal glasshouse test, Avena fatua. The note with it: Avena fatua, 312 h, rate 250 g/ha, evaluated after 13 days, scale 100 = total damage to plant, 0 = no damage. The method in brief: as §1
In assay [6] the test system is Lolium perenne (LOLPE). The assay can be described thus: Pre-emergence herbicidal glasshouse test, Lolium perenne. As to conditions: 312 h, rate 250 g/ha, evaluated after 13 days, scale 100 = total damage to plant, 0 = no damage. The method in brief: as §1
The subject of assay [7] is Echinochloa crus-galli (ECHCG). The assay can be described thus: Pre-emergence herbicidal glasshouse test, Echinochloa crus-galli. The note with it: Echinochloa crus-galli, 312 h, rate 250 g/ha, evaluated after 13 days, scale 100 = total damage to plant, 0 = no damage. Summed up:
as §1

Assay [8] concerns Avena fatua (AVEFA). Kind of assay: Post-emergence herbicidal glasshouse test, Avena fatua. The note with it: Avena fatua, 312 h, rate 250 g/ha, evaluated after 13 days, scale 100 = total damage to plant, 0 = no damage. Summed up: as §1

Here are results for 18 molecules from US8895761B2, “4-phenylpyrane-3,5-diones, 4-phenylthiopyrane-3,5-diones and 2-phenylcyclohexane-1,3,5-triones as herbicides” (Syngenta Limited, priority 2007, dated 2014).

Broadly, the pest or weed control is the degree to which the test organism was suppressed or injured, in per cent.

The structures appear in SMILES notation.

As to `CCc1cc(-c2ccc(F)c(OC)c2)ccc1C1=C(O)C(C)(C)SC(C)(C)C1=O` [Compound B-4], the pest or weed control at 250 g/ha in assay [1] was 60%; in the assay on Lolium perenne (LOLPE) [2], 50%; in assay [3] it was 0%; in assay [4], 40%; in the assay with Avena fatua (AVEFA) [5], 0%; in the assay with Lolium perenne (LOLPE) [6] it was 0%. In addition, the pest or weed control at 250 g/ha came to 0% in assay [7] and 80% in the assay on Avena fatua (AVEFA) [8].
Turning to `CCc1cc(-c2ccc(F)cc2OC)ccc1C1=C(O)C(C)(C)OC(C)(C)C1=O` [Compound A-85], the pest or weed control at 250 g/ha was determined as 80% in assay [1]; 70% in the assay with Lolium perenne (LOLPE) [2]; 0% in assay [3]; 60% in assay [4]; 30% in the assay with Avena fatua (AVEFA) [5]; 70% with Lolium perenne (LOLPE) [6]. The pest or weed control at 250 g/ha was determined as 20% in assay [7] and 40% with Avena fatua (AVEFA) [8].
On to `CCc1cc(-c2ccc(F)c(F)c2F)ccc1C1=C(O)C(C)(C)OC(C)(C)C1=O` [Compound A-87], for which the pest or weed control at 250 g/ha in assay [1] stood at 100%; in the assay on Lolium perenne (LOLPE) [2], 90%; in assay [3], 0%; in assay [4] it was 70%; in the assay on Avena fatua (AVEFA) [5], 0%; in the assay with Lolium perenne (LOLPE) [6], 0%. The pest or weed control at 250 g/ha in assay [7] amounted to 0%; in the assay on Avena fatua (AVEFA) [8], 90%.
For `CCc1cc(-c2cc(F)c(F)cc2F)ccc1C1=C(O)C(C)(CC)OC(C)(CC)C1=O` (stereo not drawn) [Compound A-132], the pest or weed control at 250 g/ha in assay [1] is 80%; in the assay on Lolium perenne (LOLPE) [2], 50%; in assay [3], 20%; in assay [4] it was 60%; with Avena fatua (AVEFA) [5], 0%; in the assay with Lolium perenne (LOLPE) [6], 20%. Also, the figures for the pest or weed control at 250 g/ha (in assay [7]; in the assay with Avena fatua (AVEFA) [8]) were 10% and 0%, respectively.
As for `CCc1cc(-c2cc(F)c(F)c(F)c2)ccc1C1=C(O)C(C)(COC)OC(C)(C)C1=O` (stereo not drawn) [Compound A-114], the pest or weed control at 250 g/ha in assay [1] is 100%; with Lolium perenne (LOLPE) [2], 100%; in assay [3] it was 90%; in assay [4], 90%; in the assay on Avena fatua (AVEFA) [5], 90%; in the assay with Lolium perenne (LOLPE) [6], 100%. For the same molecule, the values for the pest or weed control at 250 g/ha (in assay [7]; in the assay on Avena fatua (AVEFA) [8]) were 100% and 90%, respectively.
`CCc1cc(-c2ccc(F)cc2F)ccc1C1=C(O)C(C)(C)OC(C)(C)C1=O` [Compound A-82]: the pest or weed control at 250 g/ha in assay [1] is 80%; with Lolium perenne (LOLPE) [2], 80%; in assay [3], 10%; in assay [4], 80%; in the assay with Avena fatua (AVEFA) [5], 20%; with Lolium perenne (LOLPE) [6], 70%. Also, the pest or weed control at 250 g/ha was 30% in assay [7] and 0% in the assay with Avena fatua (AVEFA) [8].
In the case of `Cc1cc(-c2ccc(Cl)cc2F)cc(C)c1C1=C(O)[C@@]2(C)CC[C@H](O2)C1=O` (racemic) [Compound A-53], the pest or weed control at 250 g/ha is 100% in assay [1]; 100% in the assay with Lolium perenne (LOLPE) [2]; 50% in assay [3]; 90% in assay [4]; 60% in the assay on Avena fatua (AVEFA) [5]; 90% in the assay with Lolium perenne (LOLPE) [6]. The pest or weed control at 250 g/ha came to 100% in assay [7] and 80% in the assay on Avena fatua (AVEFA) [8].
For `CCc1cc(-c2ccc(F)c(Cl)c2)ccc1C1=C(O)C(C)(C)OC(C)(C)C1=O` [Compound A-76], the pest or weed control at 250 g/ha in assay [1] was found to be 70%; with Lolium perenne (LOLPE) [2], 80%; in assay [3], 0%; in assay [4], 80%; in the assay with Avena fatua (AVEFA) [5] it was 0%; in the assay with Lolium perenne (LOLPE) [6] it was 0%. Further, the pest or weed control at 250 g/ha worked out at 0% in assay [7] and 40% with Avena fatua (AVEFA) [8].
As to `CCc1cc(-c2ccc(Cl)cc2Cl)ccc1C1=C(O)C(C)(C)OC(C)(C)C1=O` [Compound A-36], the pest or weed control at 250 g/ha was 60% in assay [1]; 40% in the assay with Lolium perenne (LOLPE) [2]; 0% in assay [3]; 30% in assay [4]; 0% in the assay on Avena fatua (AVEFA) [5]; 0% with Lolium perenne (LOLPE) [6]. The values for the pest or weed control at 250 g/ha (in assay [7]; in the assay on Avena fatua (AVEFA) [8]) were 0% and 20%, respectively.
Regarding `CCc1cc(-c2ccc(F)c(F)c2)ccc1C1=C(O)C(C)(COC)OC(C)(C)C1=O` (stereo not drawn) [Compound A-113], the pest or weed control at 250 g/ha in assay [1] turned out to be 100%; in the assay with Lolium perenne (LOLPE) [2], 100%; in assay [3], 100%; in assay [4], 100%; in the assay on Avena fatua (AVEFA) [5], 90%; in the assay with Lolium perenne (LOLPE) [6], 100%. The pest or weed control at 250 g/ha in assay [7] came to 100%; in the assay on Avena fatua (AVEFA) [8], 90%.
`CCc1cc(-c2ccc(F)c(F)c2)ccc1C1=C(O)C(C)(C)C(=O)C(C)(C)C1=O` [Compound C-4]: the pest or weed control at 250 g/ha is 70% in assay [1]; 80% in the assay with Lolium perenne (LOLPE) [2]; 20% in assay [3]; 80% in assay [4]; 0% with Avena fatua (AVEFA) [5]; 20% in the assay with Lolium perenne (LOLPE) [6]. The pest or weed control at 250 g/ha in assay [7] was 0%; in the assay on Avena fatua (AVEFA) [8] it was 30%.
`CCc1cc(-c2ccc(Cl)c(F)c2Cl)ccc1C1=C(O)C(C)(C)OC(C)(C)C1=O` [Compound A-46]: the pest or weed control at 250 g/ha in assay [1] amounted to 80%; in the assay on Lolium perenne (LOLPE) [2], 40%; in assay [3], 0%; in assay [4], 50%; in the assay with Avena fatua (AVEFA) [5], 0%; with Lolium perenne (LOLPE) [6], 40%. For the same molecule, the pest or weed control at 250 g/ha in assay [7] is 30%; with Avena fatua (AVEFA) [8] it was 0%.
As to `CCc1cc(-c2ccc(Cl)c(Cl)c2F)ccc1C1=C(O)C(C)(C)OC(C)(C)C1=O` [Compound A-48], the pest or weed control at 250 g/ha in assay [1] came to 100%; in the assay on Lolium perenne (LOLPE) [2], 30%; in assay [3], 0%; in assay [4], 50%; with Avena fatua (AVEFA) [5], 0%; with Lolium perenne (LOLPE) [6] it was 0%. In addition, the pest or weed control at 250 g/ha in assay [7] was determined as 0%; with Avena fatua (AVEFA) [8] it was 20%.
For the molecule `CCc1cc(-c2ccc(Cl)cc2F)ccc1C1=C(O)[C@@]2(C)CC[C@H](O2)C1=O` (racemic) [Compound A-14], the pest or weed control at 250 g/ha was 100% in assay [1]; 100% in the assay on Lolium perenne (LOLPE) [2]; 50% in assay [3]; 80% in assay [4]; 50% in the assay with Avena fatua (AVEFA) [5]; 80% in the assay with Lolium perenne (LOLPE) [6]. In addition, the pest or weed control at 250 g/ha in assay [7] was 80%; in the assay with Avena fatua (AVEFA) [8], 100%.
For `CCc1cc(-c2ccc(Cl)c(F)c2F)ccc1C1=C(O)C(C)(C)OC(C)(C)C1=O` [Compound A-47], the pest or weed control at 250 g/ha turned out to be 100% in assay [1]; 60% in the assay on Lolium perenne (LOLPE) [2]; 0% in assay [3]; 90% in assay [4]; 40% with Avena fatua (AVEFA) [5]; 50% with Lolium perenne (LOLPE) [6]. In addition, the pest or weed control at 250 g/ha in assay [7] stood at 30%; in the assay with Avena fatua (AVEFA) [8], 70%.
As to `CCc1cc(-c2ccc(Cl)cn2)ccc1C1=C(O)C(C)(C)OC(C)(C)C1=O` [Compound A-43], the pest or weed control at 250 g/ha in assay [1] was 100%; in the assay on Lolium perenne (LOLPE) [2], 80%; in assay [3], 20%; in assay [4], 80%; in the assay with Avena fatua (AVEFA) [5], 30%; with Lolium perenne (LOLPE) [6], 50%. The pest or weed control at 250 g/ha (in assay [7]; in the assay with Avena fatua (AVEFA) [8]) was 70% each time.
`CCc1cc(-c2ccc(F)c(F)c2F)ccc1C1=C(O)C(C)(CC)OC(C)(CC)C1=O` (stereo not drawn) [Compound A-133]: the pest or weed control at 250 g/ha worked out at 60% in assay [1]; 50% in the assay with Lolium perenne (LOLPE) [2]; 30% in assay [3]; 60% in assay [4]; 0% in the assay with Avena fatua (AVEFA) [5]; 30% in the assay on Lolium perenne (LOLPE) [6]. The pest or weed control at 250 g/ha in assay [7] amounted to 0%; with Avena fatua (AVEFA) [8], 20%.
Take `CCc1cc(-c2cccc(OC)c2)ccc1C1=C(O)C(C)(C)OC(C)(C)C1=O` [Compound A-71]: the pest or weed control at 250 g/ha in assay [1] came to 80%; in the assay with Lolium perenne (LOLPE) [2], 80%; in assay [3] it was 0%; in assay [4] it was 30%; in the assay with Avena fatua (AVEFA) [5], 0%; in the assay on Lolium perenne (LOLPE) [6], 0%. Besides, the pest or weed control at 250 g/ha (in assay [7]; in the assay on Avena fatua (AVEFA) [8]) was 0% each time.
